Where “and” joins values, the source holds several entries; their conditions need not be identical. Identical values can stand only once.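 Each compound was tested at five concentrations against cells in 96-well plates for 48 hours. Abbreviation: GI50, concentration required for 50% inhibition of growth. Definition used: TGI = concentration required for complete inhibition of growth.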
Experiments:
Assay in all cases: growth of human tumour cells (NCI), 48 h
SK-MEL-2 melanoma = system: SK-MEL-2 melanoma
TK-10 renal = system: TK-10 renal
SF-539 CNS = system: SF-539 CNS
CCRF-CEM leukemia = system: CCRF-CEM leukemia
MDA-MB-435 = system: MDA-MB-435
MDA-MB-231 breast = system: MDA-MB-231 breast
BT-549 breast = system: BT-549 breast
HL-60(TB) leukemia = system: HL-60(TB) leukemia
NCI/ADR-RES ovarian = system: NCI/ADR-RES ovarian
EKVX NSCLC = system: EKVX NSCLC

SMILES	GI50 (SK-MEL-2 melanoma)	TGI (SK-MEL-2 melanoma)	GI50 (TK-10 renal)	TGI (TK-10 renal)	GI50 (SF-539 CNS)	TGI (SF-539 CNS)	GI50 (CCRF-CEM leukemia)	TGI (CCRF-CEM leukemia)	GI50 (MDA-MB-435)	TGI (MDA-MB-435)	GI50 (MDA-MB-231 breast)	TGI (MDA-MB-231 breast)	GI50 (BT-549 breast)	TGI (BT-549 breast)	GI50 (HL-60(TB) leukemia)	TGI (HL-60(TB) leukemia)	GI50 (NCI/ADR-RES ovarian)	TGI (NCI/ADR-RES ovarian)	GI50 (EKVX NSCLC)	TGI (EKVX NSCLC)
O=C(Nc1ccc(OCc2nnc(-c3ccccc3)o2)c(F)c1)Nc1ccc(Cl)c(C(F)(F)F)c1	2.64 µM	7.12 µM	2.62 µM	8.24 µM	2.41 µM	13 µM	2.38 µM	10.6 µM	2.71 µM	> 100 µM	2.3 µM	6.03 µM	3.51 µM	13.1 µM	1.99 µM	4.61 µM	2.27 µM	7.65 µM	–	–
COc1ccc2cc(Cn3cc[n+](Cc4ccc5ccccc5c4)c3)ccc2c1	1.91 µM	4.65 µM	3.72 µM	15 µM	2.37 µM	7.81 µM	2.66 µM	10.4 µM	1.79 µM	4.12 µM	1.55 µM	3.81 µM	1.96 µM	4.17 µM	1.34 µM	3.89 µM	> 100 µM	> 100 µM	3.71 µM	15.5 µM
OCC1OC(n2cnc3c2NC=NC[C@H]3O)CC1O (stereo not given in full)	> 588 µM	500 µM and > 588 µM	–	> 500 µM	405 µM and > 588 µM	461 µM and > 588 µM	> 588 µM	492 µM and > 588 µM	–	> 500 µM	–	> 500 µM	–	> 500 µM	219 µM	465 µM and > 588 µM	–	500 µM	–	500 µM
Cc1nn(-c2ccccc2)c2nc3c(nc12)C1=NCCN1C(c1ccc(Cl)cc1)N3 (stereo not given)	2.3 µM	4.46 µM	2.93 µM	7.18 µM	1.94 µM	4.23 µM	2.69 µM	7.85 µM	1.85 µM	3.74 µM	1.81 µM	4.95 µM	12.6 µM	27.1 µM	1.87 µM	4.4 µM	13.4 µM	32 µM	–	–
COc1cc(C2CC(c3ccccc3)=NN2C(C)=O)cc(OC)c1OC (stereo not given)	4.02 µM	> 100 µM	> 46.9 µM	> 100 µM	3.06 µM	17.8 µM	3.09 µM	> 100 µM	0.428 µM	8.27 µM	7.68 µM	> 100 µM	6.37 µM	> 100 µM	3.26 µM	> 31.7 µM	2.8 µM	> 26.1 µM	6.41 µM	> 100 µM
CC(C)NC(=O)OCc1c(COC(=O)NC(C)C)c(-c2ccc(Cl)c(Cl)c2)n2c1CCC2	–	> 65.1 µM	–	88.2 µM	–	65.4 µM	–	44.6 µM	–	> 100 µM	–	> 100 µM	–	> 100 µM	–	48.2 µM	–	> 100 µM	–	69.6 µM
N=c1n(Cc2ccccc2)c(N)cc(=O)n1Cc1ccccc1	2.79 µM	7.18 µM	2.22 µM	7.47 µM	1.96 µM	4.25 µM	1.63 µM	8.65 µM	3.54 µM	13.8 µM	7.45 µM	42.5 µM	2.65 µM	10.3 µM	2.21 µM	4.93 µM	2.33 µM	5.71 µM	2.12 µM	5.42 µM
CCn1c(-c2nonc2N)nc2cncc(C(=O)NCCNC)c21	5.27 µM	> 25 µM	0.612 µM	4.64 µM	3.04 µM	> 25 µM	> 19.9 µM	> 25 µM	2.64 µM	> 25 µM	> 25 µM	> 25 µM	3.13 µM	> 22.3 µM	> 25 µM	> 25 µM	18.9 µM	> 25 µM	0.903 µM	> 25 µM
COc1ccc2c(c1)/C(=C\c1c(Cl)n(C)c3ccccc13)C(=O)N2	0.668 µM	31.4 µM	9.26 µM	34.2 µM	0.672 µM	3.33 µM	3.53 µM	> 100 µM	0.286 µM	1.26 µM	0.399 µM	9.53 µM	1.29 µM	16.4 µM	0.182 µM	2.65 µM	0.629 µM	2.03 µM	3.95 µM	24.4 µM
O=C(Cc1ccccc1)NC(c1ccc(Cl)cc1)c1c(O)ccc2ccccc12 (stereo not given)	2.9 µM	6.83 µM	4.17 µM	13.2 µM	2.53 µM	7.51 µM	3.91 µM	26.7 µM	2.91 µM	10.7 µM	1.98 µM	4.73 µM	3.8 µM	12.8 µM	2.43 µM	6.39 µM	3.41 µM	11.5 µM	–	–
CCN(CC)CCCC(Cc1ccccc1)Nc1c2ccc(Cl)cc2nc2ccc(OC)cc12 (stereo not given)	1.79 µM	3.46 µM	1.68 µM	3.31 µM	1.7 µM	3.33 µM	2 µM	6.51 µM	1.5 µM	2.89 µM	1.65 µM	3.7 µM	2.2 µM	5.17 µM	2.11 µM	4.45 µM	3.02 µM	10.4 µM	2.84 µM	10.5 µM
N#CCCSC(=S)C1CCCC1=N (stereo not given)	–	> 100 µM	–	> 100 µM	–	> 100 µM	–	–	–	> 100 µM	–	> 100 µM	–	> 100 µM	–	> 100 µM	–	> 100 µM	–	> 100 µM
O=C(O)c1ccccc1-c1ccccc1C(=O)Nc1ccc2c(c1)[nH]c(=O)c1ccccc12	–	> 100 µM	–	> 100 µM	–	> 100 µM	–	> 100 µM	–	> 100 µM	–	> 100 µM	–	> 100 µM	–	> 100 µM	–	> 100 µM	–	> 100 µM
COc1ccc(-c2nn(-c3cccc(NC(=O)c4cccc(C(F)(F)F)c4)c3)cc2-c2ccncc2)cc1Cl	3 µM	13.2 µM	6.77 µM	> 100 µM	1.77 µM	6.01 µM	1.9 µM	> 100 µM	0.343 µM	2.03 µM	1.77 µM	16.1 µM	3.14 µM	> 100 µM	2.96 µM	8.64 µM	1.75 µM	14 µM	–	–

From PubChem BioAssay (NCI)
